One test deals with Prp-TDP43^A315T mice. Format: in vivo. The method, then:
Extranuclear accumulation of TDP-43 protein is a pathological hallmark of a number of neurological diseases. […] Male Prp-TDP43^A315T mice (N=10 mice per group) at 3 weeks of age were administered daily treatments of test compounds. Compound A19 was administered via subcutaneous injection, and Compound 5a and Compound 6a were administered via oral gavage. After 2 months of treatment, plasma samples were collected for cytokine quantification. […] Plasma IL-6 and TNF-α cytokine expression levels were determined using the ELISA method. The submandibular vein was punctured with a lancet and a blood drop was collected directly on a microtube containing EDTA as anticoagulant. Samples were centrifuged for 15 minutes at 1000×g at 4° C. within 20 minutes of collection. 20 μl of plasma supernatant was stored at −20° C. before ELISA analysis.
Plasma was diluted at 1:10 in sterile PBS, and IL-6 and TNF-α quantification was performed in duplicate for each animal using 10 μl of sample per well in 96-well plates using the ELISA method (IL-6: Signa-Aldrich Cat #RAB0308, TNF-α: Sigma-Aldrich Cat #RAB0477). Statistical analysis was carried out by 2-way ANOVA with Dunnett's multiple comparisons post-test with compound-treated samples compared to vehicle-treated samples.

In test [1] the test system is Rat primary cortical neuron cultures. The note with it: LPS 24 h.
Procedure: (§1) To assess the neuroprotective effect of compound treatment against inflammatory insult, primary cultured cortical neurons were subjected to lipopolysaccharide (LPS) treatment for 24h along with various compound doses of compounds of Formula (I) or Compound A19. […] Rat primary cortical neuron cultures were grown at 37° C., 5% C02 in Complete Neurobasal Medium supplemented with B27/GDNF/BDNF containing 10% FBS until maturity. 25 μl of culture volume were seeded in a 384-well plate at 5,000 cells/well, and treated with 1 μM, 100 nM, 10 nM, 1 nM, or 0.1 nM of test compound for 15 minutes. Cells were then subjected to 1 μM LPS challenge for 24 hours. Luminescence measurements to assess relative levels of ATP were performed on an Envision plate reader (Perkin Elmer). Data for DMSO control were set to 100% cell viability, and each group (n=4) were averaged and presented as mean±SEM.
Test [2] deals with THP-1-differentiated macrophages. Kind of test: Pro-inflammatory cytokines in supernatants of LPS-challenged THP-1-differentiated macrophages. Format: cell-based, human. Also on record: key to Significant reduction in pro-inflammatory cytokine expression: IL-6 / Significant reduction in pro-inflammatory cytokine expression: TNF-α / Significant reduction in pro-inflammatory cytokine expression: IL-1β: “NS” indicates a non-significant reduction in the indicated cytokine; “+” indicates a p value <0.05 in Tukey post test; “++” indicates a p value <0.01 in Tukey post test. Conditions: for Significant reduction in pro-inflammatory cytokine expression: IL-1β / Significant reduction in pro-inflammatory cytokine expression: IL-6 / Significant reduction in pro-inflammatory cytokine expression: TNF-α: LPS 24 hrs. The text has this:
Neuroinflammation plays a crucial role in disease progression and is a complex phenomenon involving various cells that affect many extra- and intracellular signaling pathways and cytokine production. The macrophage of the brain (microglia) is the main agent of innate immunity in the CNS and performs various functions, including neuroprotection, in response to inflammatory signals. Activated microglia participate in developing neuroinflammation, responding to toxic exogenous substances (like LPS) or endogenous substances (like amyloid-beta). Here, THP-1 cells were used as an in-vitro cell model to evaluate mechanisms relevant to CNS inflammation. Differentiation with phorbol-12-myristate-13-acetate (PMA) causes THP-1 monocyte cells to acquire functional and morphological resemblance to macrophages. LPS interacts with THP-1 differentiated macrophage through the toll-like receptor 4, triggering the inflammatory response and stimulating pro-inflammatory cytokine release and eventually leading to cellular death. Test compounds were investigated for whether they have anti-inflammatory effects on LPS-challenged macrophage cultures. THP-1-differentiated macrophages were treated with test compounds for 20 minutes, followed by 24 hrs of LPS challenge. Culture supernatants were then collected to analyzed for the presence of pro-inflammatory cytokines: interleukin 1β (IL--1β), interleukin 6 (IL-6) and tumor necrosis factor α (TNF-α).
Cytokine quantification in cell culture supernatants was accomplished by homogeneous time resolved fluorescence (HTRF) kits to assess levels of IL-1β (Human IL-1β kit, #62HIL1BPEG, Cisbio) and IL-6 (Human IL-6 kit, 62HILO6PET, Cisbio), and by ELISA (Human TNF-α ELISA kit, KHC3011, ThermoFisher) to determine the levels of TNF-α.
Data analysis was performed via 1-way ANOVA with Tukey post-test compared to LPS treatment cultures using Prism statistical software (GraphPad). Tabular data indicates significance of reduction in culture supernatants for the indicated analyte at the indicated dose.

Test [3] has as its system Rat primary cortical neuron cultures. Kind of test: Neuroprotection of rat cortical neurons against LPS challenge (Cell Titer-Glo). Conditions: at at least one dose tested.
Procedure: as §1
In test [4] the test system is primary culture of both cortical neurons and microglia. Briefly: Microglial activation (Iba1 area) after Aβ1-42 challenge. Format: cell-based. Conditions: 5 ng/ml; 15 min Pre-Aβ challenge.
Setting [5] is: 2 months of treatment, doses as in the value.

Read-outs that look alike come from different tables or passages of the source.

Take `CCC(C)CN1CC2N(Cc3ccc(OC(F)F)cc3)CCC(=O)N2[C@@H](C)C1=O` (some centres unmarked) [Compound 6a]: the “Significant decrease in plasma cytokine expression after 2 months of treatment: IL-6” value with Prp-TDP43^A315T mice (10 mg/kg PO daily) and in the test with Prp-TDP43^A315T mice (20 mg/kg PO daily) was “++++ (++++ = p < 0.0001)” each time. Besides, the “Significant decrease in plasma cytokine expression after 2 months of treatment: TNF-α” value in the test on Prp-TDP43^A315T mice (10 mg/kg PO daily) and in the test with Prp-TDP43^A315T mice (20 mg/kg PO daily) was “++++ (++++ = p < 0.0001)” each time. In addition, the “Plasma IL-6 expression (result in words)” value with Prp-TDP43^A315T mice (setting [5]) was “significantly reduced expression of both cytokines at doses of 10 and 20 mg/kg”. For the same molecule, the “Plasma TNF-α expression (result in words)” value in the test on Prp-TDP43^A315T mice (setting [5]) was “significantly reduced expression of both cytokines at doses of 10 and 20 mg/kg”. Further, the “Significance of neuroprotection vs 1 uM LPS” value in test [1] (dose 0.1 nM), in test [1] (dose 1 nM), in test [1] (dose 10 nM), in test [1] (dose 100 nM) and in test [1] (dose 1 μM) was “+++ (+++ indicates p<0.001)” throughout. The “Expression of IL-1β and TNF-α (result in words)” value in test [2] (at at least one tested dose) is “significantly reduced”. Further, the “Significant reduction in pro-inflammatory cytokine expression: IL-1β” value in test [2] (dose 0.1 nM) is recorded as “NS”; in test [2] (dose 10 nM) it was “NS”; in test [2] (dose 1000 nM), “+ (“+” indicates a p value <0.05 in Tukey post test)”. Moreover, the “Significant reduction in pro-inflammatory cytokine expression: IL-6” value in test [2] (dose 0.1 nM), in test [2] (dose 10 nM) and in test [2] (dose 1000 nM) was “NS” throughout. Also, the “Significant reduction in pro-inflammatory cytokine expression: TNF-α” value in test [2] (dose 0.1 nM) is reported as “NS”; in test [2] (dose 10 nM), “NS”; in test [2] (dose 1000 nM), “+ (“+” indicates a p value <0.05 in Tukey post test)”. For the same molecule, the “Protection of primary neurons from LPS-stimulated inflammatory toxicity (in words)” value in test [3] was “protected primary neurons from LPS-stimulated inflammatory toxicity”.

As for “HGF: Hepatocyte growth factor, 5 ng/ml treatment in the microglia culture”, the “Significant decrease in Iba1 area, compared to vehicle treated (Aβ challenge)” value in test [4] is on record as “+ (“+” indicates a p value < 0.05 in Fisher's LSD post-test compared to Aβ challenged)”.

(Values after patent US20250275976A1, “Methods of Treating Neuroinflammatory Conditions” (Athira Pharma, Inc., priority 2022, published 2025).)
